Measurements as given in patent US11649255B2, “Indazoles as hematopoietic progenitor kinase 1 (HPK1) inhibitors and methods using same” (1st Biotherapeutics, Inc., priority 2020, dated 2023).
Structures can show the parent of a compound that is named as a salt.

Molecular target: recombinant human HPK1 (Homo sapiens (Human), UniProt Q92918)
Assay: HPK1 kinase assay (ADP-Glo)
Format: biochemical
Details: 25 μM ATP, MBP substrate
Method in brief: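 Activity was read as ADP formed, detected by ADP-Glo luminescence after the reaction of 5 ng recombinant human HPK1 with MBP and ATP (stocks 0.5 μg/μl and 25 μM) for 40 min at 30 °C. Buffer was Tris pH 7.5 with MgCl2, BSA and DTT, with compound in 0.5% DMSO. IC50 came from inhibition curves.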

Chain of recombinant human HPK1 (Q92918 whole entry): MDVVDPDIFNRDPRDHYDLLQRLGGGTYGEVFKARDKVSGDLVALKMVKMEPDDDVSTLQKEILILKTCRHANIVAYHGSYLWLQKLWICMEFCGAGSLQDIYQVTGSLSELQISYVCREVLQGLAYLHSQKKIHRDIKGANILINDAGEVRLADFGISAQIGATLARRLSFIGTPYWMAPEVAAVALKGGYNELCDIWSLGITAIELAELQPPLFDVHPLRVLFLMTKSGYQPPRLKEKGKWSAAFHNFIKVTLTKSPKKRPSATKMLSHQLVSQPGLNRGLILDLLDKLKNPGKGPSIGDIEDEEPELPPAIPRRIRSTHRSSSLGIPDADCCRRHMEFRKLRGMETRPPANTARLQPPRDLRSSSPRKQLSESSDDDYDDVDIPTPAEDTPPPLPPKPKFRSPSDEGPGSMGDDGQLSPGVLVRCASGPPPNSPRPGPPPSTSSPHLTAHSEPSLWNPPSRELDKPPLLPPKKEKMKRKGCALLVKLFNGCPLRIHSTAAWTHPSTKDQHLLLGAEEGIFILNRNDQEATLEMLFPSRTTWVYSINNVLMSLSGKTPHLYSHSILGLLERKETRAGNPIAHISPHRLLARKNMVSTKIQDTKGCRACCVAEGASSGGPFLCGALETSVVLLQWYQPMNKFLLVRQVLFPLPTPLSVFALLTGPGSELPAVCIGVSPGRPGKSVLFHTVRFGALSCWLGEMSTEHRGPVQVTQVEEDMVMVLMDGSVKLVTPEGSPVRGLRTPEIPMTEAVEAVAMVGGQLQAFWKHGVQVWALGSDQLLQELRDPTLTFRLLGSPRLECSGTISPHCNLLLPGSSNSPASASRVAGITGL

IC50	SMILES
< 100 nM	O=C(Nc1cn2cc(-c3c(Cl)c(F)c(Cn4cncn4)c4[nH]ncc34)ccc2n1)[C@@H]1C[C@@H]1F [Example 385, (1S,2S)-N-(6-(7-((1H-1,2,4-triazol-1-yl)methyl)-5-chloro-6-fluoro-1H-indazol-4-yl)imidazo[1,2-a]pyridin-2-yl)-2-fluorocyclopropane-1-carboxamide]
< 100 nM	CN(C)c1c(F)c(Cl)c(-c2ccc3nc(NC(=O)NC4CC4)cn3c2)c2cn[nH]c12 [Example 387, 1-(6-(5-chloro-7-(dimethylamino)-6-fluoro-1H-indazol-4-yl)imidazo[1,2-a]pyridin-2-yl)-3-cyclopropylurea]
< 100 nM	Cc1cccn1-c1c(F)c(Cl)c(-c2ccc3nc(NC(=O)[C@@H]4C[C@@H]4F)cn3c2)c2cn[nH]c12 [Example 388, (1S,2S)-N-(6-(5-chloro-6-fluoro-7-(2-methyl-1H-pyrrol-1-yl)-1H-indazol-4-yl)imidazo[1,2-a]pyridin-2-yl)-2-fluorocyclopropane-1-carboxamide]
< 100 nM	CC(C)(O)c1c(F)c(Cl)c(-c2ccc3nc(NC(=O)[C@@H]4C[C@@H]4F)cn3c2)c2cn[nH]c12 [Example 389, (1S,2S)-N-(6-(5-chloro-6-fluoro-7-(2-hydroxypropan-2-yl)-1H-indazol-4-yl)imidazo[1,2-a]pyridin-2-yl)-2-fluorocyclopropane-1-carboxamide]
< 100 nM	COCc1c(F)c(Cl)c(-c2ccc3nc(NC(=O)[C@@H]4C[C@@H]4F)cn3c2)c2cn[nH]c12 [Example 390, (1S,2S)-N-(6-(5-chloro-6-fluoro-7-(methoxymethyl)-1H-indazol-4-yl)imidazo[1,2-a]pyridin-2-yl)-2-fluorocyclopropane-1-carboxamide]
< 100 nM	CCOCc1c(F)c(Cl)c(-c2ccc3nc(NC(=O)[C@@H]4C[C@@H]4F)cn3c2)c2cn[nH]c12 [Example 391, (1S,2S)-N-(6-(5-chloro-7-(ethoxymethyl)-6-fluoro-1H-indazol-4-yl)imidazo[1,2-a]pyridin-2-yl)-2-fluorocyclopropane-1-carboxamide]
< 100 nM	O=C(Nc1cn2cc(-c3c(Cl)c(F)c(Cn4cnnn4)c4[nH]ncc34)ccc2n1)[C@@H]1C[C@@H]1F [Example 392, (1S,2S)-N-(6-(7-((1-tetrazol-1-yl)methyl)-5-chloro-6-fluoro-1H-indazol-4-yl)imidazo[1,2-a]pyridin-2-yl)-2-fluorocyclopropane-1-carboxamide]
< 100 nM	COC(C)(C)c1c(F)c(Cl)c(-c2ccc3nc(NC(=O)[C@@H]4C[C@@H]4F)cn3c2)c2cn[nH]c12 [Example 395, (1S,2S)-N-(6-(5-chloro-6-fluoro-7-(2-methoxypropan-2-yl)-1H-indazol-4-yl)imidazo[1,2-a]pyridin-2-yl)-2-fluorocyclopropane-1-carboxamide]
< 100 nM	CC(c1c(F)c(Cl)c(-c2ccc3nc(NC(=O)[C@@H]4C[C@@H]4F)cn3c2)c2cn[nH]c12)N(C)C (stereo partly drawn) [Example 396, (1S,2S)-N-(6-(5-chloro-7-(1-(dimethylamino)ethyl)-6-fluoro-1H-indazol-4-yl)imidazo[1,2-a]pyridin-2-yl)-2-fluorocyclopropane-1-carboxamide. Formaic acid salt]
< 100 nM	CN(C)C(=O)CNc1c(F)c(Cl)c(-c2ccc3nc(NC(=O)[C@@H]4C[C@@H]4F)cn3c2)c2cn[nH]c12 [Example 397, (1S,2S)-N-(6-(5-chloro-7-((2-(dimethylamino)-2-oxoethyl)amino)-6-fluoro-1H-indazol-4-yl)imidazo[1,2-a]pyridin-2-yl)-2-fluorocyclopropane-1-carboxamide]
< 100 nM	CC(c1c(F)c(Cl)c(-c2ccc3nc(NC(=O)[C@@H]4C[C@@H]4F)cn3c2)c2cn[nH]c12)n1cnnn1 (stereo partly drawn) [Example 398, (1S,2S)-N-(6-(7-(1-(1H-tetrazol-1-yl)ethyl)-5-chloro-6-fluoro-1H-indazol-4-yl)imidazo[1,2-a]pyridin-2-yl)-2-fluorocyclopropane-1-carboxamide]
< 100 nM	CC(N)c1c(F)c(Cl)c(-c2ccc3nc(NC(=O)[C@@H]4C[C@@H]4F)cn3c2)c2cn[nH]c12 (stereo partly drawn) [Example 399, (1S,2S)-N-(6-(7-(1-aminoethyl)-5-chloro-6-fluoro-1H-indazol-4-yl)imidazo[1,2-a]pyridin-2-yl)-2-fluorocyclopropane-1-carboxamide]
< 100 nM	CN(C)C(=O)c1ccn(-c2c(F)c(Cl)c(-c3ccc4nc(NC(=O)[C@@H]5C[C@@H]5F)cn4c3)c3cn[nH]c23)c1 [Example 400, 1-(5-chloro-6-fluoro-4-(2-((1S,2S)-2-fluorocyclopropane-1-carboxamido)imidazo[1,2-a]pyridin-6-yl)-1H-indazol-7-yl)-N,N-dimethyl-1H-pyrrole-3-carboxamide]
< 100 nM	O=C(Nc1cn2cc(-c3c(Cl)c(F)c(OC4CC4)c4[nH]ncc34)ccc2n1)[C@@H]1C[C@@H]1F [Example 401, (1S,2S)-N-(6-(5-chloro-7-cyclopropoxy-6-fluoro-1H-indazol-4-yl)imidazo[1,2-a]pyridin-2-yl)-2-fluorocyclopropane-1-carboxamide]
101 to 500 nM	CNC(C)c1c(F)c(Cl)c(-c2ccc3nc(NC(=O)[C@@H]4C[C@@H]4F)cn3c2)c2cn[nH]c12 (stereo partly drawn) [Example 402, (1S,2S)-N-(6-(5-chloro-6-fluoro-7-(1-(methylamino)ethyl)-1H-indazol-4-yl)imidazo[1,2-a]pyridin-2-yl)-2-fluorocyclopropane-1-carboxamide]
> 1000 nM	CC(C)Nc1c(F)c(Cl)c(-c2cc(N)c3nc(NC(=O)[C@@H]4C[C@@H]4F)cn3c2)c2cn[nH]c12 [Example 403, (1S,2S)-N-(8-amino-6-(5-chloro-6-fluoro-7-(isopropylamino)-1H-indazol-4-yl)imidazo[1,2-a]pyridin-2-yl)-2-fluorocyclopropane-1-carboxamide. 1 formic acid]
< 100 nM	CC(C)Oc1c(F)c(Cl)c(-c2ccc3nc(NC(=O)[C@@H]4C[C@@H]4F)cn3c2)c2cn[nH]c12 [Example 404, (1S,2S)-N-(6-(5-chloro-6-fluoro-7-isopropoxy-1H-indazol-4-yl)imidazo[1,2-a]pyridin-2-yl)-2-fluorocyclopropane-1-carboxamide]
< 100 nM	CC(C)c1c(F)c(Cl)c(-c2ccc3nc(NC(=O)[C@@H]4C[C@@H]4F)cn3c2)c2cn[nH]c12 [Example 405, (1S,2S)-N-(6-(5-chloro-6-fluoro-7-isopropyl-1H-indazol-4-yl)imidazo[1,2-a]pyridin-2-yl)-2-fluorocyclopropane-1-carboxamide]
< 100 nM	O=C(Nc1cn2cc(-c3c(Cl)c(F)c(C4CCCC4)c4[nH]ncc34)ccc2n1)[C@@H]1C[C@@H]1F [Example 406, (1S,2S)-N-(6-(5-chloro-7-cyclopentyl-6-fluoro-1H-indazol-4-yl)imidazo[1,2-a]pyridin-2-yl)-2-fluorocyclopropane-1-carboxamide]
< 100 nM	C[C@H](c1c(F)c(Cl)c(-c2ccc3nc(NC(=O)[C@@H]4C[C@@H]4F)cn3c2)c2cn[nH]c12)n1ncnn1 [Example 407, (1S,2S)-N-(6-(7-((R)-1-(2H-tetrazol-2-yl)ethyl)-5-chloro-6-fluoro-1H-indazol-4-yl)imidazo[1,2-a]pyridin-2-yl)-2-fluorocyclopropane-1-carboxamide]
< 100 nM	C[C@@H](c1c(F)c(Cl)c(-c2ccc3nc(NC(=O)[C@@H]4C[C@@H]4F)cn3c2)c2cn[nH]c12)n1ncnn1 [Example 408, (1S,2S)-N-(6-(7-((S)-1-(2H-tetrazol-2-yl)ethyl)-5-chloro-6-fluoro-1H-indazol-4-yl)imidazo[1,2-a]pyridin-2-yl)-2-fluorocyclopropane-1-carboxamide]
< 100 nM	O=C(Nc1cn2cc(-c3c(Cl)c(F)c(C4CCCC4O)c4[nH]ncc34)ccc2n1)[C@@H]1C[C@@H]1F (stereo partly drawn) [Example 410, (1S,2S)-N-(6-(5-chloro-6-fluoro-7-(2-hydroxycyclopentyl)-1H-indazol-4-yl)imidazo[1,2-a]pyridin-2-yl)-2-fluorocyclopropane-1-carboxamide]
< 100 nM	CC(=S)Nc1c(F)c(Cl)c(-c2ccc3nc(NC(=O)[C@@H]4C[C@@H]4F)cn3c2)c2cn[nH]c12 [Example 411, (1S,2S)-N-(6-(5-chloro-7-ethanethioamido-6-fluoro-1H-indazol-4-yl)imidazo[1,2-a]pyridin-2-yl)-2-fluorocyclopropane-1-carboxamide]
< 100 nM	CC(=O)N(C)C(C)c1c(F)c(Cl)c(-c2ccc3nc(NC(=O)[C@@H]4C[C@@H]4F)cn3c2)c2cn[nH]c12 (stereo partly drawn) [Example 412, (1S,2S)-N-(6-(5-chloro-6-fluoro-7-(1-(N-methylacetamido)ethyl)-1H-indazol-4-yl)imidazo[1,2-a]pyridin-2-yl)-2-fluorocyclopropane-1-carboxamide]
< 100 nM	C[C@H](c1c(F)c(Cl)c(-c2ccc3nc(NC(=O)[C@@H]4C[C@@H]4F)cn3c2)c2cn[nH]c12)n1cnnn1 [Example 413]
< 100 nM	C[C@@H](c1c(F)c(Cl)c(-c2ccc3nc(NC(=O)[C@@H]4C[C@@H]4F)cn3c2)c2cn[nH]c12)n1cnnn1 [Example 414, (1S,2S)-N-(6-(7-((S)-1-(1H-tetrazol-1-yl)ethyl)-5-chloro-6-fluoro-1H-indazol-4-yl)imidazo[1,2-a]pyridin-2-yl)-2-fluorocyclopropane-1-carboxamide]
< 100 nM	CC(=O)NC(C)c1c(F)c(Cl)c(-c2ccc3nc(NC(=O)[C@@H]4C[C@@H]4F)cn3c2)c2cn[nH]c12 (stereo partly drawn) [Example 417, (1S,2S)-N-(6-(7-(1-acetamidoethyl)-5-chloro-6-fluoro-1H-indazol-4-yl)imidazo[1,2-a]pyridin-2-yl)-2-fluorocyclopropane-1-carboxamide]
< 100 nM	CC(Nc1c(F)c(Cl)c(-c2ccc3nc(NC(=O)[C@@H]4C[C@@H]4F)cn3c2)c2cn[nH]c12)C1CC1 (stereo partly drawn) [Example 420, (1S,2S)-N-(6-(5-chloro-7-((1-cyclopropylethyl)amino)-6-fluoro-1H-indazol-4-yl)imidazo[1,2-a]pyridin-2-yl)-2-fluorocyclopropane-1-carboxamide]
